Experimental data: US20240165226A1, “COMBINATION TREATMENT OF CD38-EXPRESSING TUMORS” (GENMAB A/S, priority 2006, published 2024)

Tested on: Daudi-luc tumor cells
Test: In vivo SCID-luciferase experiments
Set-up: species or system SCID mice
Text: In this model tumor cells are transfected with firefly luciferase. Upon administration of luciferin (Molecular Probes, Leiden, The Netherlands) to the mice the labeled cells can be detected in vivo by bioluminescent imaging using a highly sensitive CCD camera, cf. Wetterwald et al., American Journal of Pathology 160(3), 1143-1153 (2002).
Daudi cells were transfected with gWIZ luciferase from Gene Therapy Systems (San Diego, CA) and cultured in RPMI with 10% FCS, Pen/Strep, Sodium Pyruvate and 1 μg/ml puromycin (Sigma). Cells were analysed for luciferase expression (expressed in RLU/1×10^5 cells) in a luminometer and for CD38 expression by FACS. 2.5×10^6 luciferase-transfected Daudi cells/mouse were injected i.v. into SCID mice. Mice were treated with -003, -005, isotype control antibody (HuMab-KLH) or rituximab (anti-CD20 antibody). Antibodies were injected intraperitoneally. Four treatment settings were used (see Table 4). In the preventive setting, antibody (100 μg/mouse) and cells were administered simultaneously. In therapeutic setting I, antibody (300 μg/mouse) was administered 7 days after administration of cells. In therapeutic setting II, antibody (10 μg/mouse) was administered 14 days after administration of cells. In therapeutic setting III, antibody (100 μg/mouse) was administered 7 days after administration of cells. For imaging, mice were anesthetized by i.p. injection of a mixture of ketamine/xylazine/atropine. Synthetic D-Luciferin (sodium salt, Molecular Probes) was given i.p. at a dose of 25 mg/ml. Mice were then placed in a light tight box and after 3 min, imaging was started using a VersArray 1300B liquid nitrogen cooled CCD detector (Roper Scientific). Photons emitted from the luciferase were counted over an exposure period of 5 min. Under illumination black and white images were made for reference. MetaVue software (Universal Imaging Corp) was used for data collection and image analysis. Statistical significance of differences between groups was established using one-way analysis of variance with a Newman-Keuls post test using GraphPad PRISM version 3.02 (Graphpad Software Inc).

## rituximab [anti-CD20 antibody, reference compound]
Preventive setting, 100 μg/mouse, day 0, i.p.
  inhibition of growth of tumor cells: inhibition observed
Therapeutic setting I, 300 μg/mouse, day 7, i.p.
  inhibition of growth of tumor cells: inhibition observed
